Source: PMC3720542, “Population pharmacokinetics of mefloquine, piperaquine and artemether-lumefantrine in Cambodian and Tanzanian malaria patients” (Malaria Journal, 2013)
“And” between values parts separate entries of the source, which are not always exact repeats. Equal entries are not always repeated. Where two headings read alike, the source gives them in different places.

Key:
[1] = Population pharmacokinetic analysis (NONMEM) of artemether-lumefantrine and metabolites in Tanzanian malaria patients (Kibaoni); format: in vivo, human
Method: Three studies have been conducted, one in Tanzania and two in Cambodia. The study profiles are described in Figure 1. The first study was performed during March to May 2008 at the Kibaoni Health Centre, Kilombero district, Morogoro region, Tanzania. […] Six AM-LF (Coartem®, Novartis Pharma, Switzerland) doses were administered at time 0, 8, […] according to body weight (see Table 1); patients were either admitted for three days or asked to come back to the health facility for each drug administration. Mothers of breastfed patients were encouraged to feed their children and patients admitted were provided with food. Patients who reported that they have not eaten within two hours to prior dose intake were instructed to eat as soon as possible. Patients were seen by the clinical officer on days 0, 1, 2, 3, 7, 14, 28, and 42. A blood sample for pharmacokinetic measurement was taken at baseline (pre-dose on day 0) and on days 1, 2, and 7 at pre-defined random times after the last dosing. At each visit, a filter paper sample and a thin and thick smear were taken, in addition to axillary temperature, respiratory rate and haemoglobin measurements (only on days 0, 28 and 42) as well as evaluation of symptoms (e.g. headache, vomiting, and diarrhea). The exact dose and time of last drug intake, body weight, height, age, sex, food intake and concomitant medications were carefully recorded. If patients suffered from concomitant illnesses they were provided with additional treatment (paracetamol, mebendazole, metronidazole, cloxacillin, amoxicillin). Samples of 2 ml of venous blood were collected on an EDTA Vacutainer and kept on ice for no longer than 6 h after withdrawal and then aliquoted into whole blood, plasma and pellet and immediately stored in liquid nitrogen or a -80°C freezer. […] The laboratory is part of the quality control system of the World-Wide Antimalarial Resistance Network (WWARN). The pharmacokinetic analysis for each drug taken separately was performed using the NONMEM computer program Version 6 (NM-TRAN version II). It uses mixed (fixed and random) effects regression to estimate population means and variances of the pharmacokinetic parameters and to identify factors that influence them. One-, two- and three-compartment pharmacokinetic models with first-order absorption, with and without absorption lag times, were compared. Additional one or two-compartments were used for anti-malarials presenting metabolite concentrations (AM and LF). The final parameters estimated were systemic clearance (CL/F), inter-compartmental clearance (Q/F), central volume of distribution (VC/F), peripheral volume of distribution (VP/F) and absorption rate constant (ka). Since no intravenous drug concentration data were available, these parameters represent apparent values. Where available, metabolite data were included into the model and metabolism rate constant from drug compartment to metabolite compartment (k23) and metabolite clearance (CLmet) were also estimated. Owing to identifiability problems, the volume of distribution of the metabolites (VM) DLF and DHA were assumed to equal LF and AM VC, respectively. […] The observed baseline residual plasma concentrations were fitted by estimating a factor (F0) that provided an estimation of the residual doses from previous treatment. […] Proportional and combined proportional-and-additive error models were compared to describe intra-patient (residual) variability for the mother compound, and if available for its metabolite using Cpij(1 + ε1ij) + ε2ij or Cmij(1 + ε3ij) + ε4ij, where Cpij are the corresponding predicted i^th drug plasma concentration and Cmij are the predicted metabolite concentration for the j^th individual, and ε1ij, ε2ij, ε3ij, ε4ij, are independent normally distributed residual error terms with a mean of zero and a variance of σ^2_1, σ^2_2, σ^2_3, σ^2_4. The covariate analysis was performed using a stepwise insertion/deletion approach. […]

[2] = cited from earlier work
malaria = system: malaria; set-up: method as in earlier work; conditions: listed as LF, cited from earlier work
[3] = bootstrap evaluation, 200 replicates
[4] = patients, age 7.7 ± 1.4 years, n 13, sampling 28 days
[5] = patients, median age 4.0 (1–10) years, n 50, sampling 72 h
[6] = patients, median age 20 (5–66) years, n 309
[7] = patients, median age 22 (14–60) years, n 217
[8] = patients, median age 23 (13–59) years, n 102
[9] = pregnant women, median age 24 (15–42) years, n 103, sampling 336 h

CCCCN(CCCC)CC(O)c1cc(Cl)cc2c1-c1ccc(Cl)cc1/C2=C/c1ccc(Cl)cc1 (stereo not drawn) [Lumefantrine, lumefantrine]
patients with a concentration below the cut-off value of 175 ng/ml ([1]; Tanzanian sample of this study, day 7): 35%
F0, bootstrap mean of 200 [1, 3]: 2.45 mg
k23, bootstrap mean of 200 [1, 3]: 0.00037 h⁻¹
ka, bootstrap mean of 200 [1, 3]: 0.48 h⁻¹
θBWCL, bootstrap mean of 200 [1, 3]: 0.51
θBWVC, bootstrap mean of 200 [1, 3]: 0.34
σC (CV%), bootstrap mean of 200 [1, 3]: 61%
IIV (inter-individual variability) of CL ([1]; final model): 38%
IIV (inter-individual variability) of F0 ([1]; final model): 103%
IIV (inter-individual variability) of VC ([1]; final model): 33%
IIV (inter-individual variability) of k23 ([1]; final model): 38%
ka (first-order absorption rate constant), population estimate ([1]; final model): 0.54 h⁻¹
θBWVC, exponent of allometric power function of body weight on VC, population estimate ([1]; final model): 0.35
F0 (residual amount from the previous treatment), population estimate ([1]; final model, baseline): 2.53 mg
σC (CV%), residual error for the central compartment, population estimate ([1]; final model, intra-patient variability): 60%
k23 (metabolism rate constant), population estimate ([1]; final model, parent to metabolite (AM to DHA, LF to DLF)): 0.00037 h⁻¹
residual dose (F0) as percentage of the recommended first dose ([1]; first dose 120–480 mg): 0.3–1.3%
clearance ([1]; human, plasma, oral, present study, Tanzanian patients, sampling 7 days): 128 mL/min
Vd ([1]; human, plasma, oral, present study, Tanzanian patients, sampling 7 days, read-out: VSS (steady-state volume of distribution), population estimate for a person of 70 kg): 265 L
CL, population estimate for a person of 70 kg [2, 4]: 7.29 L/h
VSS, population estimate for a person of 70 kg [2, 4]: 506 L
CL, population estimate for a person of 70 kg [2, 5]: 5.4 L/h
VSS, population estimate for a person of 70 kg [2, 5]: 623 L
CL, population estimate for a person of 70 kg [2, 6]: 7.6 L/h
VSS, population estimate for a person of 70 kg [2, 6]: 361 L
CL, population estimate for a person of 70 kg [2, 7]: 21 L/h
VSS, population estimate for a person of 70 kg [2, 7]: 301 L
CL, population estimate for a person of 70 kg [2, 8]: 7 L/h
VSS, population estimate for a person of 70 kg [2, 8]: 298 L
CL, population estimate for a person of 70 kg [2, 9]: 8.7 L/h
VSS, population estimate for a person of 70 kg [2, 9]: 257 L
efficacy rates at 42 days for a day 7 concentration cut-off of 50 ng/ml (malaria; high transmission areas): 80% and 95%
efficacy rates at 42 days for a day 7 concentration cut-off of 125 ng/ml (malaria; low transmission areas): 84% and 96%
